Experimental data: patent US12174190B2, “Combined markers for metastatic cancer and uses thereof” (Albert Einstein College of Medicine, priority 2017, dated 2024)

Columns and labels:
Assay type in all cases: in vivo, human
[1] = test system: TMEM (Tumor Microenvironment of Metastasis); assay: TMEM score in breast cancers before and after neoadjuvant chemotherapy (NAC); details: 20 breast cancer patients, before vs after NAC (weekly paclitaxel 80 mg/m^2 x 12 weeks followed by dose-dense AC); FIG. 5B-C
Experimental: (§1) FIG. 5A-5D. Neoadjuvant chemotherapy increases TMEM, MenaCalc and MenaINV scores in some breast cancer patients. Paclitaxel (and other cytotoxic chemotherapy) increases TMEM Score, MenaCalc and MenaINV expression in breast cancer patients treated with neoadjuvant chemotherapy (NAC). (A) Study design. (B) Individual TMEM scores of 20 patients before and after receiving NAC, which included weekly paclitaxel (80 mg/m^2×12 consecutive weeks) followed sequentially by dose-dense AC chemotherapy (doxorubicin 60 mg/m^2 and cyclophosphamide 600 mg/m^2 every 2 weeks×4 cycles, plus pegrastim 6 mg SC on day 2 of each cycle). Horizontal line; TMEM high-risk cutoff point. […] (D) MenaCalc expression in fine needle aspiration (FNA) biopsies, as assessed by real-time RT-PCR from 4 patients before and after 2 doses of neo-adjuvant chemotherapy with paclitaxel. (E) MenaINV gene expression in FNA biopsy samples, as assessed by real-time RT-PCR, taken from 5 breast cancer patients before and after 2-weeks of receiving NAC with paclitaxel. […]
Individual TMEM scores of 20 patients were determined before and after receiving NAC, which included weekly paclitaxel (80 mg/m^2×12 consecutive weeks) followed sequentially by dose-dense AC chemotherapy (doxorubicin 60 mg/m^2 and cyclophosphamide 600 mg/m^2 every 2 weeks×4 cycles, plus pegrastim 6 mg SC on day 2 of each cycle) (see FIG. 5B). […]

MenaCalc = MenaCalc expression in FNA biopsies by real-time RT-PCR before and after NAC with paclitaxel; details: FNA biopsies from 4 patients, before vs after 2 doses of neo-adjuvant paclitaxel; FIG. 5D
Experimental: as §1, with “point. For each pair of bars, Pre-NAC scores are shown in the first bar in the pair and Post-NAC scores are shown in the second bar.” for “point.”
(§2) MenaCalc expression was determined in fine needle aspiration (FNA) biopsies, as assessed by real-time RT-PCR from 4 patients before and after 2 doses of neo-adjuvant chemotherapy with paclitaxel (see FIG. 5D). […]

MenaINV = MenaINV gene expression in FNA biopsy samples by real-time RT-PCR before and after NAC with paclitaxel; details: FNA biopsies from 5 breast cancer patients, before vs after 2 weeks of NAC with paclitaxel; FIG. 5E
Experimental: as §1, with “point. For each pair of bars, Pre-NAC scores are shown in the first bar in the pair and Post-NAC scores are shown in the second bar.” for “point.”
as §2

CC(=O)O[C@H]1C(=O)[C@@]2(C)[C@H]([C@H](OC(=O)c3ccccc3)[C@]3(O)C[C@H](OC(=O)[C@H](O)[C@@H](NC(=O)c4ccccc4)c4ccccc4)C(C)=C1C3(C)C)[C@]1(OC(C)=O)CO[C@@H]1C[C@@H]2O [paclitaxel]
increases: TMEM Score [1] | MenaCalc expression (MenaCalc) | MenaINV expression (MenaINV)
